ChEMBL document CHEMBL1201862, “PubChem BioAssay data set” (2004)
Calls of active or inactive are those of the source.

Assays:
Cytochrome P450 2C9 = Cytochrome P450 2C9 (Homo sapiens, UniProt P11712)
Cytochrome P450 2C19 = Cytochrome P450 2C19 (Homo sapiens, UniProt P33261); experiment: Cytochrome panel assay with activity outcomes. Panel member name: p450-cyp2c19 Compounds with AC50 equal or less than 10 uM are considered active; format: functional
Cytochrome P450 1A2 = molecular target: T1, Cytochrome P450 1A2 (Homo sapiens, UniProt P05177);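 note: PubChem cytochrome P450 panel assay, CYP1A2 panel member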
T1 sequence (P05177 whole entry): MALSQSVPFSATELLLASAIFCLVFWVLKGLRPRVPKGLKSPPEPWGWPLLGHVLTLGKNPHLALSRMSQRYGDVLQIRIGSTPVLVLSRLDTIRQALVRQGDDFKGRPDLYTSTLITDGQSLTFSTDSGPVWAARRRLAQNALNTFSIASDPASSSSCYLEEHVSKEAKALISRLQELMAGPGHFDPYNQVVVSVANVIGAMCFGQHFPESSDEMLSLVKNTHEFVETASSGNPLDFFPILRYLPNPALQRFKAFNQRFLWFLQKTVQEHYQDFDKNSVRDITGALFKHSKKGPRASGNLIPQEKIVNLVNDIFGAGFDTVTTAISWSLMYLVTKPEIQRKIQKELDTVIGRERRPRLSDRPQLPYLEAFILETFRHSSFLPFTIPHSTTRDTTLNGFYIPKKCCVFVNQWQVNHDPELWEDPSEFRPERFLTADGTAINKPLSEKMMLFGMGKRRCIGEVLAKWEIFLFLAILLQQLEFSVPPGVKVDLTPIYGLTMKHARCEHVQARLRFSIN

[1] = Luminescence Cell-Based Dose Retest to Confirm Inhibitors of Cancer Stem Cells. [Related pubchem assays (depositor defined):AID2717, AID2721]; format: functional; conditions: Homo sapiens
[2] = molecular target: T2, Replicative DNA helicase DnaB (Mycobacterium tuberculosis, UniProt P9WMR3); experiment: DnaB intein splicing inhibitors, dose response, biochemical, cell-free fluorescence (AID 449749); format: functional
T2 sequence (P9WMR3 whole entry): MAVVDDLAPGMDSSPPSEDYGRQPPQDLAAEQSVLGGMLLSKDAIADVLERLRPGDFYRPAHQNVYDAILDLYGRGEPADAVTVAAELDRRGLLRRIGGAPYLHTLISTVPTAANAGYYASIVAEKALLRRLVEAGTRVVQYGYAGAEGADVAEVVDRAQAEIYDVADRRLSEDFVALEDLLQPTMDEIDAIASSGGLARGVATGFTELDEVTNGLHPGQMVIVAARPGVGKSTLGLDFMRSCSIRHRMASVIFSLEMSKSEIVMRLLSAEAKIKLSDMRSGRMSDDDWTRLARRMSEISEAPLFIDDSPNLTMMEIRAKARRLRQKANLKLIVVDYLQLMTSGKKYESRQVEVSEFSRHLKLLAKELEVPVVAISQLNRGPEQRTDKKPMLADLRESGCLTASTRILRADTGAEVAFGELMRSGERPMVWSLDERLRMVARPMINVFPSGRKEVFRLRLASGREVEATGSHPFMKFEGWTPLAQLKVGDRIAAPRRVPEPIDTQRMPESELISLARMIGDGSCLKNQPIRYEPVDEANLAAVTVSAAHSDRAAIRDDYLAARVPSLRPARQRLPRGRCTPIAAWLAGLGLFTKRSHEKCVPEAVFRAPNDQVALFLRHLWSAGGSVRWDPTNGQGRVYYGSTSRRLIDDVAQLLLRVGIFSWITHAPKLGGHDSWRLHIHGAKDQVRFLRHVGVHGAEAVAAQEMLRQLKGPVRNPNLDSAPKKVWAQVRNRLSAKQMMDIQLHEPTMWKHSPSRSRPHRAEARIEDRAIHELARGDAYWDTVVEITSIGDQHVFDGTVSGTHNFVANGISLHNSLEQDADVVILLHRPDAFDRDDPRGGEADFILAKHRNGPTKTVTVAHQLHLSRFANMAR

Protein RecA = molecular target: T3, Protein RecA (Mycobacterium tuberculosis, UniProt P9WHJ3); experiment: Fluorescence Cell-Free Homogeneous Dose Retest to Identify Inhibitors of RecA-Intein Splicing Activity. [Related pubchem assays (depositor defined):AID2097, AID2223, AID489010, AID492950]; format: functional
T3 sequence (P9WHJ3 whole entry): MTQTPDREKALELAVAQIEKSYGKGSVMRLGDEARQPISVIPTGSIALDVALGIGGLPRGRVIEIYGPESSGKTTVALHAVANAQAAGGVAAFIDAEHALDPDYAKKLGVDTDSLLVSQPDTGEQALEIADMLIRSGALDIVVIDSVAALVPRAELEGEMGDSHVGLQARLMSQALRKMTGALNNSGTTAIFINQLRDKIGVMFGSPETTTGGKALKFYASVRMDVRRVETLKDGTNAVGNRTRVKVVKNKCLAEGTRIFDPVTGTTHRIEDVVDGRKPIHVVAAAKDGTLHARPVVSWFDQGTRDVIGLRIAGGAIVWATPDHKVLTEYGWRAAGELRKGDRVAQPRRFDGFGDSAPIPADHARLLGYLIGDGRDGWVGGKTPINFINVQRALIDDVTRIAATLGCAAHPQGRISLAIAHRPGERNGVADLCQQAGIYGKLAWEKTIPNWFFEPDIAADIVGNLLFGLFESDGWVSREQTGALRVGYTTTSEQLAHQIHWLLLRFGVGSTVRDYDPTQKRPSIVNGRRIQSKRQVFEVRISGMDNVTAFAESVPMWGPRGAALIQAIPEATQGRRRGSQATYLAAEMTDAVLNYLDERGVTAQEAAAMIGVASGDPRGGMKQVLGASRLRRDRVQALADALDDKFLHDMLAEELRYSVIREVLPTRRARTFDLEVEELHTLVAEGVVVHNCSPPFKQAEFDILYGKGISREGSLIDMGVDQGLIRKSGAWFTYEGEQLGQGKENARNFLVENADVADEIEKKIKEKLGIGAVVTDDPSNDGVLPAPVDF

Cytochrome P450 3A4 = Cytochrome P450 3A4 (Homo sapiens, UniProt P08684);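 note: CYP3A4 tested as one member of a cytochrome P450 panel screen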
Chain of Cytochrome P450 3A4 (P08684 whole entry): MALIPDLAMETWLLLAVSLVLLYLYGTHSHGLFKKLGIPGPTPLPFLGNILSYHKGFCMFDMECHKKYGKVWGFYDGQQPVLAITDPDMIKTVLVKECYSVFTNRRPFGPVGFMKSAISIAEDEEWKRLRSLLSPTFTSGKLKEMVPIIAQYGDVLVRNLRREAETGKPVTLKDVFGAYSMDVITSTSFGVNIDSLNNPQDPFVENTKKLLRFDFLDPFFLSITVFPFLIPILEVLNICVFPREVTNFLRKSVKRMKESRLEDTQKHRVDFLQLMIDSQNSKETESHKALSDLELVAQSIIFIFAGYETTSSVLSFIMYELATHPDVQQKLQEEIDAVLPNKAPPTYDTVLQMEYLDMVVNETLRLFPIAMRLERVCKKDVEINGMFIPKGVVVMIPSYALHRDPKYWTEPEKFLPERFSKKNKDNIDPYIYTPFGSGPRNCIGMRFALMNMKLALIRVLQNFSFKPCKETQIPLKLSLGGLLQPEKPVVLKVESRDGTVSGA

Cytochrome P450 2D6 = Cytochrome P450 2D6 (Homo sapiens, UniProt P10635);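 note: CYP2D6 member of a cytochrome P450 panel assay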
Chain of Cytochrome P450 2D6 (P10635 whole entry): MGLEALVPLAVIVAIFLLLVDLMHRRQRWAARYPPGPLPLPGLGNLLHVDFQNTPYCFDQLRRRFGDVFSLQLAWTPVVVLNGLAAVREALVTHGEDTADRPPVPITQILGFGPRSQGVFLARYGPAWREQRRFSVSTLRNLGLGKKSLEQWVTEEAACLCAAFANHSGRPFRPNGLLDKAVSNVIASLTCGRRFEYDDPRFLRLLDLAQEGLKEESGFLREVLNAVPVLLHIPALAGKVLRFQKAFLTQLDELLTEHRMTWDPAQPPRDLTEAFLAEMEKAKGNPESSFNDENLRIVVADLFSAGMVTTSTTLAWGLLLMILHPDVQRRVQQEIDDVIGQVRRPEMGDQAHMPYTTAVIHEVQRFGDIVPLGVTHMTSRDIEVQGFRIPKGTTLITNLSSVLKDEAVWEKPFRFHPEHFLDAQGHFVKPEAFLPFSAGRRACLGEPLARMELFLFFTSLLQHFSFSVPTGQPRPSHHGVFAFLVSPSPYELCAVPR

INS1 = experiment: INS-1E survival protection against cytokine death – cell-based, luminescence, retest, dose response (AID 449756); format: functional; conditions: Rattus norvegicus;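 note: cell death triggered by IL-1 beta plus TNF-alpha plus IFN-gamma mixture; protective hits raise ATP signal compared with cytokine alone wells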
[3] = Luminescence Cell-Based Dose Confirmation HTS to Identify Inhibitors of Platelet Dense Granule Release. [Related pubchem assays: 1663 (Primary HTS), 1678 (Summary of Project)]; format: functional
[4] = molecular target: Luciferin 4-monooxygenase (Photinus pyralis, UniProt P08659); experiment: inhibition of purified Photinus pyralis luciferase – biochemical, luminescence, dose response (AID 1891)
Chain of Luciferin 4-monooxygenase (P08659 whole entry): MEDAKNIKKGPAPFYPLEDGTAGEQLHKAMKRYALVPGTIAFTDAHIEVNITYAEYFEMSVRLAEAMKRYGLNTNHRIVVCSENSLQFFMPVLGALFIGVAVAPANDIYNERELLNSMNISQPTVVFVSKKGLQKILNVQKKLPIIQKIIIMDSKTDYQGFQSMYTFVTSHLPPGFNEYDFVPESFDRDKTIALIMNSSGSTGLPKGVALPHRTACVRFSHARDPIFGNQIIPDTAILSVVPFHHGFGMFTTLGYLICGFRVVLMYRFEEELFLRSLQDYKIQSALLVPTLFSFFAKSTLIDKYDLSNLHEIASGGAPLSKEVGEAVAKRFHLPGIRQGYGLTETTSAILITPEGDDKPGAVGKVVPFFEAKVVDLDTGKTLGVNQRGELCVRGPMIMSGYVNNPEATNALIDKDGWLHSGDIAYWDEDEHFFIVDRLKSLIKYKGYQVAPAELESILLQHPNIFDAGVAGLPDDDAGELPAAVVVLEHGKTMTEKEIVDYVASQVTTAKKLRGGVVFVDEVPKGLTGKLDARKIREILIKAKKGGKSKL

[5] = Trypanosoma cruzi growth suppression in host cells – NIH3T3 host cells, beta-gal luminescence, confirmation (AID 2044); format: functional, cell-based;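 note: intracellular parasites grown in NIH/3T3 mouse fibroblasts as host cells; luminescent beta-galactosidase reporter signal from transgenic T. cruzi replicating inside host cells; inhibitors lower the luminescence signal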
[6] = NIH3T3 cell viability loss – ATP luminescence, mouse fibroblasts, counter-screen, dose response (AID 2010); format: functional, cell-based;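 note: cells exposed to compound for about 90 hours before reading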

Chain of Cytochrome P450 2C9 (P11712 whole entry): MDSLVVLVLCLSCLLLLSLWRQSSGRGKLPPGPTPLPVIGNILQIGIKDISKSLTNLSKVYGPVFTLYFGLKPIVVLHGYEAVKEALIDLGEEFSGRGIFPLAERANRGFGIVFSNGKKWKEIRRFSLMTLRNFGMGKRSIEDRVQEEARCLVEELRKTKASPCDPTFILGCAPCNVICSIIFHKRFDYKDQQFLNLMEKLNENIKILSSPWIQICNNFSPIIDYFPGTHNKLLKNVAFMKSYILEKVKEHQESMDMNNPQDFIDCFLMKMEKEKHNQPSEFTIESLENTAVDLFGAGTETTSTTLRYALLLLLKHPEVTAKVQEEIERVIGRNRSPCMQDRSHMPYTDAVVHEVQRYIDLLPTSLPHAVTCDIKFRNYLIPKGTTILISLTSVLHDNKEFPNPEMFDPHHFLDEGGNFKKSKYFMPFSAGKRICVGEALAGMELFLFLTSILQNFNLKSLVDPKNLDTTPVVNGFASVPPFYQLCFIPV
Chain of Cytochrome P450 2C19 (P33261 whole entry): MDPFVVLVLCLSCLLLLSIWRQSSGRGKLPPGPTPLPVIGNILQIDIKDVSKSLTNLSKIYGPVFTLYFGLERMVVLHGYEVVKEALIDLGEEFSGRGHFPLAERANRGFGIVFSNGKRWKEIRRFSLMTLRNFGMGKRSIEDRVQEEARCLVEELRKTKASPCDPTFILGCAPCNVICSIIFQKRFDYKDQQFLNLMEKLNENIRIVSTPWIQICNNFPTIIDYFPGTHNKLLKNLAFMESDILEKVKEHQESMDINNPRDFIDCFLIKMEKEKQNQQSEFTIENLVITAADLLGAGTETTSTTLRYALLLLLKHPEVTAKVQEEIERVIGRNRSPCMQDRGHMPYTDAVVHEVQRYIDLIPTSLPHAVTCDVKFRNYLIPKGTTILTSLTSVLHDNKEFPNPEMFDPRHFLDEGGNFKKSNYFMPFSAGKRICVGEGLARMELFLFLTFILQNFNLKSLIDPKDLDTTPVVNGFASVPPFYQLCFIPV

COc1cc2c(cc1OC)CN(CC(=O)Nc1ccc3c(c1)OCO3)CC2
AC50 (Cytochrome P450 2C9): 14.1 µM (inconclusive)
AC50 (Cytochrome P450 2C19; read-out: AC50): 22.4 µM (inconclusive)
AC50 (Cytochrome P450 1A2): 20 µM (inconclusive)

CC(OC(=O)c1cccs1)C(=O)NC1CCCCC1C (centres undefined)
AC50 [1]: > 195 µM (inactive)

N#CC1=C(N)Oc2[nH]nc(-c3ccncc3)c2C1c1ccsc1 (centres undefined)
AC50 [2]: 13.4 µM (active)
EC50 (Protein RecA): 3.27 µM (active)

CC(C)=C1C(=O)C(c2ccccc2)=C2CN3C(=O)N(CCc4ccccc4)C(=O)[C@]3(Cc3ccccc3)[C@H]21
AC50 (Cytochrome P450 2C19; read-out: AC50): 25.1 µM (inconclusive)
AC50 (Cytochrome P450 3A4): 5.01 µM (inconclusive)

S=C1N(c2ccccc2)C(c2ccc(Cl)cc2)N2CCCN12 (centres undefined)
AC50 (Cytochrome P450 2C9): 10 µM (inconclusive)
AC50 (Cytochrome P450 3A4): 12.6 µM (inconclusive)

O=C(Nc1cccc(Cl)c1)Nn1cnnc1
AC50 (Cytochrome P450 1A2): 3.16 µM (inconclusive)
AC50 (Cytochrome P450 3A4): 3.16 µM (inconclusive)

Cc1ccc(Cn2nnc3c(O)nc(C4CCCN(C(=O)Nc5ccc(F)cc5F)C4)nc32)cc1 (centres undefined)
AC50 (Cytochrome P450 2C9): 22.4 µM (inconclusive)
AC50 (Cytochrome P450 2C19; read-out: AC50): 39.8 µM (inconclusive)
AC50 (Cytochrome P450 1A2): 31.6 µM (inconclusive)
AC50 (Cytochrome P450 2D6): 25.1 µM (inconclusive)

Cc1ccc(-c2nc(C[S+]([O-])CC(=O)NCc3ccc4c(c3)OCO4)c(C)o2)cc1 (centres undefined)
AC50 [1]: > 195 µM (inactive)

COc1cc2c(cc1OC)C(CCN)=NCC2
AC50 (Cytochrome P450 2C19): inconclusive
AC50 (Cytochrome P450 1A2): 5.01 µM (inconclusive)
AC50 (Cytochrome P450 2D6): 1.58 µM (inconclusive)
AC50 (Cytochrome P450 3A4): 3.98 µM (inconclusive)

O=C(c1cccc(S(=O)(=O)N2CCc3ccccc3C2)c1)N1CCN(c2ccc(O)cc2)CC1
AC50 [1]: 4.51 µM (active)

N#CC1=C(N)Oc2[nH]nc(-c3cccs3)c2C1c1ccccc1C(=O)O (centres undefined)
AC50 [2]: 2.69 µM (active)
EC50 (Protein RecA): 1.56 µM (active)

N=C(N)N/N=C(/c1ccccc1)c1ccc(O)cc1O
AC50 (Cytochrome P450 3A4): 3.98 µM (inconclusive)

CCN(Cc1cc(Cl)cc(C)c1O)Cc1c(O)ccc2ccccc12
AC50 (Cytochrome P450 2C9): 5.01 µM (inconclusive)
AC50 (Cytochrome P450 1A2): 1 µM (inconclusive)

COc1ccccc1CN1CC2(CCN(C(=O)c3ccncc3)CC2)C1
AC50 (Cytochrome P450 3A4): 7.94 µM (inconclusive)

O=C(Nc1ccc(F)cc1F)N1CCCN(CCOc2ccccc2)CC1
AC50 (INS1): 13.3 µM (active)

Cc1ccc(C(=O)Oc2ccc([N+](=O)[O-])cc2)cc1S(=O)(=O)N1CCCCCC1
AC50 [2]: 3.4 µM (active)
EC50 (Protein RecA): 4.99 µM (active)

O=C(c1coc2ccccc2c1=O)N1CCN(c2cccc(C(F)(F)F)c2)CC1
AC50 (Cytochrome P450 3A4): 22.4 µM (inconclusive)

COc1ncc2nc(-c3cc(F)cc(F)c3)c(=O)n(C3CC3)c2n1
AC50 (Cytochrome P450 2C9): 31.6 µM (inconclusive)
AC50 (Cytochrome P450 3A4): 12.6 µM (inconclusive)

Cc1ccccc1C(=N)c1ccccc1Cc1cccc2ccccc12
AC50 (Cytochrome P450 3A4): 1.58 µM (inconclusive)

CC1(C)CC(=O)C2=C(C1)N(Cc1ccccc1)C(=O)C2(O)C(F)(F)F (centres undefined)
EC50 [3]: > 112 µM (not active)
EC50 [4]: > 112 µM (not active)
AC50 (Cytochrome P450 3A4): 20 µM (inconclusive)

Cc1cccc(N(C)C(=O)c2cc3c(O)nc4ccc(C)cc4c3s2)c1
AC50 [1]: 0.394 µM (active)
EC50 [3]: 70.7 µM (active)
EC50 [4]: > 112 µM (not active)

Cc1cc(C)cc(C(=O)Nc2nnc(SCC(=O)N3CCCc4ccccc43)s2)c1
AC50 [1]: 4.46 µM (active)

O=C(c1ccccc1F)c1cn(CC(=O)N2CCOCC2)c2ccccc12
AC50 (Cytochrome P450 3A4): 17.8 µM (inconclusive)

Cc1ccc(S(=O)(=O)Nc2ccc3c(c2)CC(=O)N([C@H](C)CO)C[C@@H](C)[C@H](CN(C)Cc2ccc(-c4ccccc4)cc2)O3)cc1
AC50 [1]: 3.9 µM (active)

Cn1c(=O)c2c(nc(N3CCN(c4ccccn4)CC3)n2Cc2ccc(Cl)cc2Cl)n(C)c1=O
AC50 (Cytochrome P450 3A4): 2.24 µM (inconclusive)

CCC(=NNC(=O)c1ccc2c(c1)nc(C)n2CC)c1cc(F)ccc1O
AC50 (INS1): 2.32 µM (active)

COc1cccc(-c2sc3ccccc3c2-c2ccc(OCCN3CCOCC3)cc2)c1
AC50 [1]: 2.32 µM (active)

O=C(c1ccc(F)c(S(=O)(=O)N2CCOCC2)c1)N1CCN(c2ccc(F)cc2)CC1
AC50 (INS1): > 260 µM (inactive)

COc1ccc(C(=O)Nc2ccc(O)c3ccccc23)cc1OC
AC50 [2]: 82 µM (active)
EC50 (Protein RecA): 8.4 µM (active)

C=CCOc1ccc2cccc(/C=N/NC(=O)c3cc4cc([N+](=O)[O-])ccc4s3)c2c1
AC50 (Cytochrome P450 2C19; read-out: AC50): 0.398 µM (inconclusive)
AC50 (Cytochrome P450 3A4): 2.51 µM (inconclusive)

C/C(=N\N1C(=O)c2ccccc2NC1c1ccco1)c1ccccc1O (centres undefined)
AC50 (INS1): 2.21 µM (active)
EC50 [5]: 1.66 µM (active)
EC50 [6]: 4.99 µM (active)

CC(=O)Nc1ccccc1NC(=O)C/C(C)=N/NC(=O)C(=O)N1CCCCC1
AC50 [2]: 5.84 µM (active)
EC50 (Protein RecA): 0.891 µM (active)

O=C(Cc1cc(O)n[nH]1)N/N=C/c1c(F)cccc1Cl
AC50 [2]: 1.87 µM (active)
EC50 (Protein RecA): 1.53 µM (active)

COc1cccc(/C=N\NC(=O)C2C(=O)NCC2c2ccccc2)c1O (centres undefined)
AC50 (Cytochrome P450 2C19; read-out: AC50): 39.8 µM (inconclusive)
AC50 (Cytochrome P450 1A2): 17.8 µM (inconclusive)
AC50 (Cytochrome P450 3A4): 25.1 µM (inconclusive)

Cc1cc(C)nc(N/N=C2/CCCC/C2=C\c2ccccc2)n1
AC50 (INS1): 0.397 µM (active)

CN(N=O)c1cc(O)ccc1O [DEPHOSTATIN]
AC50 (Cytochrome P450 2C9): 10 µM (inconclusive)
AC50 (Cytochrome P450 2C19; read-out: AC50): 25.1 µM (inconclusive)
AC50 (Cytochrome P450 1A2): 31.6 µM (inconclusive)
AC50 (Cytochrome P450 2D6): 31.6 µM (inconclusive)

CCN(CC)CCNC(=O)COc1ccc(OC)cc1 [MEFEXAMIDE]
AC50 (Cytochrome P450 1A2): 12.6 µM (inconclusive)
AC50 (Cytochrome P450 2D6): 12.6 µM (inconclusive)
